Measured values published in article PMC9671100 (RSC Advances, 2022).
Where “and” joins values, the source holds several entries; their conditions need not be identical. Equal entries are not always repeated.

What was measured:
BChE (from equine serum) = BChE (from equine serum) (Equus caballus, UniProt P81908); assay: Anticholinesterase assay; assay type: biochemical; details: for IC50: BChE IC50, IC50 ± SEM, Ellman method, 30 min incubation, triplicate
[1] = DPPH radical scavenging activity; details: 517 nm, 5 min at room temperature
[2] = molecular target: AChE (from Electrophorus electricus) (Electrophorus electricus, UniProt O42275); assay: Anticholinesterase assay; assay type: biochemical
[3] = ABTS radical scavenging activity; details: for ABTS EC50: 732 nm, 6 min; for Fold = IC50 of ascorbic acid/IC50 of compounds 5a–p: ratio of the ABTS values relative to ascorbic acid

Sequence of BChE (from equine serum) (P81908 whole entry): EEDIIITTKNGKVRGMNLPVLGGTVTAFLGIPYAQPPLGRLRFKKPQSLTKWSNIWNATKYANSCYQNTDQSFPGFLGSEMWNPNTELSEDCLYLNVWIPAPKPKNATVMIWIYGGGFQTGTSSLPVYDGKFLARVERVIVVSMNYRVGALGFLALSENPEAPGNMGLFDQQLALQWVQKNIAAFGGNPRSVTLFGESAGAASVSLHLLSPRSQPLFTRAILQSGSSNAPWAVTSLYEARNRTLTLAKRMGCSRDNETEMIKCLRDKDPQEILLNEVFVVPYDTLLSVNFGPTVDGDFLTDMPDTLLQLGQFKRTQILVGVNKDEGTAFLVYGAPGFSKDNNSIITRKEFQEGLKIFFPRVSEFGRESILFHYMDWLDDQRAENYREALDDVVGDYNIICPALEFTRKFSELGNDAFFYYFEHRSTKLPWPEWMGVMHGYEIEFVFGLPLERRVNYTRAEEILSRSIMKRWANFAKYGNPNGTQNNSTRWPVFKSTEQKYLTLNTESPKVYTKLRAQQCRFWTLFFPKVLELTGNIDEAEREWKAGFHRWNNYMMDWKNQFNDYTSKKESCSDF
Sequence of AChE (from Electrophorus electricus) (O42275 24-633): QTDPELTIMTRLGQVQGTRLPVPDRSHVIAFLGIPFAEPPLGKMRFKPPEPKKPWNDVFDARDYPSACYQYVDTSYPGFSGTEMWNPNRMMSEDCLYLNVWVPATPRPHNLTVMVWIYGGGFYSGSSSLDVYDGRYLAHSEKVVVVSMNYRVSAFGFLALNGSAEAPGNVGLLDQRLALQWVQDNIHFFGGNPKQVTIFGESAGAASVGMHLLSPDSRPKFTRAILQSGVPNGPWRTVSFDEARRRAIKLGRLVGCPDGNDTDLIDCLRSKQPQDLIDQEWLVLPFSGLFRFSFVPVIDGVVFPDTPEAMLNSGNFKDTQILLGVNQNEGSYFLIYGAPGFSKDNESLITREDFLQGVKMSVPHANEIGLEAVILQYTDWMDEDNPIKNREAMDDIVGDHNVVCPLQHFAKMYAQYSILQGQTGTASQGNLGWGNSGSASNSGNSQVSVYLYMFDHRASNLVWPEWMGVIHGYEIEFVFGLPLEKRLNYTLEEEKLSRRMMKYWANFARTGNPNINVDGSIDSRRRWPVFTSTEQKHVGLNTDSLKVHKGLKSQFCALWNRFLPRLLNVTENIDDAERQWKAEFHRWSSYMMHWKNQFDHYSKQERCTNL

| SMILES | IC50 (BChE (from equine serum)) | DPPH EC50 [1] | IC50 [2] | ABTS EC50 [3] | Fold = IC50 of ascorbic acid/IC50 of compounds 5a–p [3] | times less potent than galantamine against BChE (BChE (from equine serum); IC50 ratio versus galantamine) |
| --- | --- | --- | --- | --- | --- | --- |
| Cc1nn(-c2ccccc2)c2nc3c(cc12)-c1nc(N)c(C#N)c(-c2ccccc2)c1CC3 [5a, 2-Amino-10-methyl-4,8-diphenyl-6,8-dihydro-5H-pyrazolo[3,4-j][1,7]phenanthroline-3-carbonitrile] | > 875 µM | >100 µg/mL | 259.87 ± 0.03 µM | >100 µg/mL | – | – |
| Cc1ccc(-c2c(C#N)c(N)nc3c2CCc2nc4c(cc2-3)c(C)nn4-c2ccccc2)cc1 [5b, 2-Amino-10-methyl-8-phenyl-4-(p-tolyl)-6,8-dihydro-5H-pyrazolo[3,4-j][1,7]phenanthroline-3-carbonitrile] | > 847 µM | >100 µg/mL | – | 98.77 µg/mL | 0.28 | – |
| Cc1nn(-c2ccccc2)c2nc3c(cc12)-c1nc(N)c(C#N)c(-c2ccc(Cl)cc2)c1CC3 [5d, 2-Amino-4-(4-chlorophenyl)-10-methyl-8-phenyl-6,8-dihydro-5H-pyrazolo[3,4-j][1,7]phenanthroline-3-carbonitrile] | > 810 µM | >100 µg/mL | – | >100 µg/mL | – | – |
| Cc1nn(-c2ccccc2)c2nc3c(cc12)-c1nc(N)c(C#N)c(-c2ccc([N+](=O)[O-])cc2)c1CC3 [5e, 2-Amino-10-methyl-4-(4-nitrophenyl)-8-phenyl-6,8-dihydro-5H-pyrazolo[3,4-j][1,7]phenanthroline-3-carbonitrile] | ≥ 375 µM | 26.71 µg/mL | 191.28 ± 0.015 µM | 11.51 µg/mL | 2 and 2.40 | – |
| Cc1nn(-c2ccccc2)c2nc3c(cc12)-c1nc(N)c(C#N)c(-c2cc4ccccc4nc2Cl)c1CC3 [5f, 2-Amino-4-(2-chloroquinolin-3-yl)-10-methyl-8-phenyl-6,8-dihydro-5H-pyrazolo[3,4-j][1,7]phenanthroline-3-carbonitrile] | ≥ 375 µM | >100 µg/mL | 135.33 ± 0.04 µM | 3.10 µg/mL | 9 and 8.91 | – |
| Cc1nn(-c2ccccc2)c2nc3c(cc12)-c1nc(N)c(C#N)c(-c2ccc(O)cc2)c1CC3 [5g, 2-Amino-4-(4-hydroxyphenyl)-10-methyl-8-phenyl-6,8-dihydro-5H-pyrazolo[3,4-j][1,7]phenanthroline-3-carbonitrile] | – | >100 µg/mL | – | <3 µg/mL | more than nine times | – |
| Cc1nn(-c2ccccc2)c2nc3c(cc12)-c1nc(N)c(C#N)c(-c2ccc(C#N)cc2)c1CC3 [5h, 2-Amino-4-(4-cyanophenyl)-10-methyl-8-phenyl-6,8-dihydro-5H-pyrazolo[3,4-j][1,7]phenanthroline-3-carbonitrile] | ≥ 375 µM | >100 µg/mL | 85.48 ± 0.14 µM | >100 µg/mL | – | – |
| COc1cc(-c2c(C#N)c(N)nc3c2CCc2nc4c(cc2-3)c(C)nn4-c2ccccc2)cc(OC)c1OC [5j, 2-Amino-10-methyl-8-phenyl-4-(3,4,5-trimethoxyphenyl)-6,8-dihydro-5H-pyrazolo[3,4-j][1,7]phenanthroline-3-carbonitrile] | ≥ 375 µM | >100 µg/mL | 224.54 ± 0.018 µM | >100 µg/mL | – | – |
| Cc1nn(-c2ccccc2)c2nc3c(cc12)-c1nc(N)c(C#N)c(-c2ccc4c(c2)OCO4)c1CC3 [5l, 2-Amino-4-(benzo[d][1,3]dioxol-5-yl)-10-methyl-8-phenyl-6,8-dihydro-5H-pyrazolo[3,4-j][1,7]phenanthroline-3-carbonitrile] | 119 µM | >100 µg/mL | 167.94 ± 0.04 µM | >100 µg/mL | – | 15 |
| CCOc1nc2c(c(-c3ccccc3)c1C#N)CCc1nc3c(cc1-2)c(C)nn3-c1ccccc1 [5p, 2-Ethoxy-10-methyl-4,8-diphenyl-6,8-dihydro-5H-pyrazolo[3,4-j][1,7]phenanthroline-3-carbonitrile] | ≥ 375 µM | >100 µg/mL | 329.67 ± 0.01 µM | >100 µg/mL | – | – |
| O=C1O[C@H]([C@@H](O)CO)C(O)=C1O [Ascorbic acid, reference compound] | – | 1.5 ± 0.2 µg/mL | – | 27.62 ± 3.5 µg/mL | 1 | – |
